# Test results: patent US5731326A, “PDGF antagonists II” (ZymoGenetics, Inc., priority 1996, dated 1998)
# Legend:
# [1] = target: T1, cell-surface PDGF receptors (Rattus norvegicus, UniProt Q05030); assay: Inhibition of 125I-PDGF-BB binding to rat SMCs in the presence and absence of human serum; settings: for CPM Bound, Binding Media + 10% Human Serum / CPM Bound, Binding Media: total CPM bound; for CPM Bound, Binding Media + 10% Human Serum: neg. control 1152; for CPM Bound, Binding Media: neg. control 1990
# T1 construct: endogenous in cells; host or cells: rat smooth muscle cells (SMCs), monolayer culture
# Protocol: (§1) NNC92-0270 was analyzed for the ability to inhibit ^125 I-PDGF-BB binding to monolayers of rat SMCs. To assay for inhibition of ^125 I-PDGF-BB binding to rat SMCs, the SMCs were plated at approximately 20,000 cells/well in 24-well culture dishes. The cells were used for assay 2-7 days after plating. The test compound was diluted in binding media (500 ml Ham's F-12 (Gibco BRL), 12 ml 1M Hepes pH 7.4, 5 ml 100×PSN (Gibco BRL), 1 gm rabbit serum albumin (Sigma Chemical Co., St. Louis, Mo.) to the concentrations shown in Table 2, then added to the SMCs (1 ml/well) in triplicate. To the wells was then added 50 μl of a ^125 I-PDGF-BB stock solution. Binding media alone was used as the negative control, and the addition of 200 ng/ml of PDGF-BB was used to determine nonspecific binding for ^125 I-PDGF-BB. The cells were incubated for approximately 11/2 hours at 4° C., then washed with binding media to remove unbound ligand. The cells were then incubated with extraction buffer (20 mM Tris-HCl, pH 8.0, 100 mM NaCl, 1 mM EDTA, 0.5% Nonident P-40, 0.5% sodium deoxycholate, 10 mM NaI, 1% bovine serum albumin), and the extracts were harvested and counted in a gamma counter. The data are presented as specific cpm bound for ^125 I-PDGF-BB. Nonspecific binding, determined by the addition of 200 ng/ml of unlabeled PDGF-BB, was 853 cpm, and has been subtracted from the data presented.
# NNC92-0270 was subsequently analyzed for its ability to inhibit ^125 I-PDGF-BB binding to rat SMCs when the radioligand was added to the cells in the presence of 10% human serum. The rat SMCs were plated into 24-well culture dishes and assayed as described above. The test compound was diluted to the concentrations shown in Table 3 in either binding media alone, or binding media containing 10% human serum, and 1 ml aliquots added to the test cells in triplicate. Fifty microliters of a 20×stock solution of ^125 I-PDGF-BB was added to each well. The cells were incubated for 2.5 hours at 4 ° C., washed with binding media to remove unbound ligand, and harvested with extraction buffer. The extracts were then counted in a gamma counter to determine CPM bound. […] It should be noted that the binding of ^125 I-PDGF-BB was lower in the negative control sample containing the human serum, over the negative control sample with binding media alone. The results are presented as total CPM bound.
# [2] = target: T1, cell-surface PDGF receptors; assay: Inhibition of 125I-PDGF-BB binding to rat SMCs; settings: for 125I PDGF-BB Bound (CPM): specific cpm, nonspecific subtracted, negative control 10006
# Protocol: as §1
# PMA = assay: SRE-luciferase antagonist assay, induction by PMA; type: cell-based; settings: Swiss-3T3, SWISS3T3 cells, 5 hours, approximate
# T1 sequence (Q05030 32-1097): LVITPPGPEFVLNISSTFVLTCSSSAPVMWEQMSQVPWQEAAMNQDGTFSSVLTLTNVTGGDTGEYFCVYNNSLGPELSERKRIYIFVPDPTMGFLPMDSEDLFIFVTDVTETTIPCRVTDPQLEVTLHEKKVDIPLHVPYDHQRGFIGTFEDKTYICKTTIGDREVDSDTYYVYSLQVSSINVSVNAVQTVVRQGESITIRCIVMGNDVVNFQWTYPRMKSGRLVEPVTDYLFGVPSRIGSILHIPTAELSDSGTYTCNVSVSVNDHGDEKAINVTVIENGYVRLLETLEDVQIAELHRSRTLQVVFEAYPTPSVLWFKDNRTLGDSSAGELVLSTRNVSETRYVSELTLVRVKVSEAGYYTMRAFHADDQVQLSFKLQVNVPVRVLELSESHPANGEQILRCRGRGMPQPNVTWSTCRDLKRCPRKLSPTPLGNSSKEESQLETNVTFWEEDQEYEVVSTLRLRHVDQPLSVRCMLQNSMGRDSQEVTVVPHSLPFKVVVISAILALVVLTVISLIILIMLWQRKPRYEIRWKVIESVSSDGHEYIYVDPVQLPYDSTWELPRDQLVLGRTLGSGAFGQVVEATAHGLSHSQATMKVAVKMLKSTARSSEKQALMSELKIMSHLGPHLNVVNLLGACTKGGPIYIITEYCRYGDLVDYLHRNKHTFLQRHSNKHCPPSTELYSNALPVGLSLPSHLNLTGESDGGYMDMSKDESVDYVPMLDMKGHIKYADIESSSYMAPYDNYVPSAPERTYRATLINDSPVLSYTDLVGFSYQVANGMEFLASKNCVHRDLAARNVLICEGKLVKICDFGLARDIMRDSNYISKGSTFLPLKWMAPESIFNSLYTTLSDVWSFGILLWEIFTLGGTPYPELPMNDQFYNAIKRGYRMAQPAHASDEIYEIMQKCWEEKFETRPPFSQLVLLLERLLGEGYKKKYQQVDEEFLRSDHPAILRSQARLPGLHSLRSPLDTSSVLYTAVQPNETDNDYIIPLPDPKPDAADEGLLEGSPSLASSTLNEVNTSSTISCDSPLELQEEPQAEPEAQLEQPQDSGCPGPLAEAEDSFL
smiles,measurement,setting,value
O=C(NN1CCCCC1)NS(=O)(=O)c1ccc(CCNC(=O)c2[nH]c3ccccc3c2OCc2ccccc2)cc1 [NNC92-0270],remaining activity at 12.5 µM,"[1]; 12.5 μM, 10% human serum, read-out: % CB (% Control Binding), Binding Media + 10% Human Serum",30%
same,"CPM Bound, Binding Media + 10% Human Serum","[1]; 12.5 μM, 10% human serum",349 CPM
same,remaining activity at 12.5 µM,"[1]; 12.5 μM, binding media alone, read-out: % CB (% Control Binding), Binding Media",36%
same,"CPM Bound, Binding Media","[1]; 12.5 μM, binding media alone",722 CPM
same,remaining activity at 25 µM,"[1]; 25 μM, 10% human serum, read-out: % CB (% Control Binding), Binding Media + 10% Human Serum",21%
same,"CPM Bound, Binding Media + 10% Human Serum","[1]; 25 μM, 10% human serum",244 CPM
same,remaining activity at 25 µM,"[1]; 25 μM, binding media alone, read-out: % CB (% Control Binding), Binding Media",30%
same,"CPM Bound, Binding Media","[1]; 25 μM, binding media alone",605 CPM
same,remaining activity at 50 µM,"[1]; 50 μM, 10% human serum, read-out: % CB (% Control Binding), Binding Media + 10% Human Serum",14%
same,"CPM Bound, Binding Media + 10% Human Serum","[1]; 50 μM, 10% human serum",162 CPM
same,remaining activity at 50 µM,"[1]; 50 μM, binding media alone, read-out: % CB (% Control Binding), Binding Media",23%
same,"CPM Bound, Binding Media","[1]; 50 μM, binding media alone",467 CPM
same,Potency for inhibiting 125I-PDGF-BB binding in 10% human serum compared to binding media alone (in words),[1]; rat SMCs,approximately equal potency
same,125I PDGF-BB Bound (CPM),[2]; 6.2 μM,5228 CPM
same,125I PDGF-BB Bound (CPM),[2]; 12.5 μM,2823 CPM
same,125I PDGF-BB Bound (CPM),[2]; 25 μM,920 CPM
same,125I PDGF-BB Bound (CPM),[2]; 50 μM,532 CPM
same,125I PDGF-BB Bound (CPM),[2]; 100 μM,378 CPM
same,remaining activity at 6.2 µM,"[2]; 1.5 h, 6.2 μM, read-out: % Control Binding",52%
same,remaining activity at 12.5 µM,"[2]; 1.5 h, 12.5 μM, read-out: % Control Binding",28%
same,remaining activity at 25 µM,"[2]; 1.5 h, 25 μM, read-out: % Control Binding",9%
same,remaining activity at 50 µM,"[2]; 1.5 h, 50 μM, read-out: % Control Binding",5%
same,remaining activity at 100 µM,"[2]; 1.5 h, 100 μM, read-out: % Control Binding",4%
same,Inhibition of PDGF-BB binding to cell-surface PDGF receptors (in words),[2]; rat SMCs,potent inhibitor
same,IC50,PMA,> 100 µM
